Experimental data from ChEMBL document CHEMBL1201862, “PubChem BioAssay data set” (2004).
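Assay format: 96-well plates, 48-hour exposure. Here, GI50 denotes the concentration required for 50% inhibition of growth.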 Active and inactive are the calls of the source. No stated cut-off is given here; in the data, active = GI50 up to about 1.1 µM and inactive = higher.

How the values were obtained:
Assay in all cases: NCI-60 cell line screen, 48 h
[1] = test system: KM-20L2
[2] = test system: EKVX
[3] = test system: UACC-257
[4] = test system: SF-295
[5] = test system: SF-268
[6] = test system: HOP-62
[7] = test system: HL-60
[8] = test system: NCI-H23
[9] = test system: SK-OV-3
[10] = test system: OVCAR-8
[11] = test system: TK-10
[12] = test system: NCI-H460
[13] = test system: SNB-19
[14] = test system: HT-29
[15] = test system: IGROV-1
[16] = test system: M19-MEL
[17] = test system: CCRF-CEM
[18] = test system: KM12
[19] = test system: NCI-H522
[20] = test system: HCT-116
[21] = test system: ACHN
[22] = test system: OVCAR-5
[23] = test system: MOLT-4
[24] = test system: DMS-273
[25] = test system: U-251
[26] = test system: UO-31
[27] = test system: HOP-92
[28] = test system: M14
[29] = test system: A498
[30] = test system: SNB-78
[31] = test system: UACC-62
[32] = test system: A549
[33] = test system: RXF 393
[34] = test system: SR
[35] = test system: SK-MEL-28
[36] = test system: NCI-H226
[37] = test system: DMS-114
[38] = test system: SK-MEL-5
[39] = test system: SNB-75
[40] = test system: OVCAR-3
[41] = test system: DLD-1
[42] = test system: LXFL 529
[43] = test system: SF-539
[44] = test system: RPMI-8226
[45] = test system: HOP-18
[46] = test system: K562
[47] = test system: COLO 205
[48] = test system: HCC 2998
[49] = test system: SW-620
[50] = test system: 786-0
[51] = test system: SN12C
[52] = test system: SK-MEL-2
[53] = test system: OVCAR-4
[54] = test system: Malme-3M
[55] = test system: CAKI-1

Measured: GI50

NC(CCCC(N)P(=O)(O)O)C(=O)O (centres undefined)
inactive: [1] > 100 µM | [2] > 100 µM | [3] > 100 µM | [4] > 100 µM | [5] > 100 µM | [6] > 100 µM | [7] > 100 µM | [8] > 100 µM | [9] > 100 µM | [10] > 100 µM | [11] > 100 µM | [12] > 100 µM | [13] > 100 µM | [14] > 100 µM | [15] > 100 µM | [16] > 100 µM | [17] > 100 µM | [18] > 100 µM | [19] > 100 µM | [20] > 100 µM | [21] > 100 µM | [22] > 100 µM | [23] > 100 µM | [24] > 100 µM | [25] > 100 µM | [26] > 100 µM | [27] > 100 µM | [28] > 100 µM | [29] > 100 µM | [30] > 100 µM | [31] > 100 µM | [32] > 10 µM | [33] > 100 µM | [34] > 100 µM | [35] > 100 µM | [36] > 100 µM | [37] > 100 µM

Nc1c(C(=O)N/N=C/c2ccccc2)sc(=S)n1-c1ccccc1
inactive: [3] > 100 µM | [38] > 100 µM | [4] > 100 µM | [5] > 100 µM | [39] 8.71 µM | [6] > 100 µM | [7] > 100 µM | [8] > 100 µM | [9] > 100 µM | [10] > 100 µM | [11] > 100 µM | [12] > 100 µM | [40] > 100 µM | [41] > 100 µM | [13] > 100 µM | [14] > 100 µM | [42] > 100 µM | [43] 70 µM | [15] > 100 µM | [16] > 100 µM | [17] > 100 µM | [18] > 100 µM | [19] > 100 µM | [20] > 100 µM | [21] > 100 µM | [23] > 100 µM | [44] > 100 µM | [45] > 100 µM | [46] 3.38 µM | [47] > 100 µM | [25] > 100 µM | [26] > 100 µM | [27] > 100 µM | [48] > 100 µM | [49] > 100 µM | [31] > 100 µM | [32] > 100 µM | [34] > 100 µM | [35] > 100 µM | [36] > 100 µM

NC1(CCCCCCCCCCC(=O)O)CNCCNCCNCCNC1
inactive: [1] 24.9 µM | [2] 94.6 µM | [3] > 100 µM | [38] 38.9 µM | [4] > 100 µM | [5] > 100 µM | [6] 23.1 µM | [7] 15.9 µM | [8] > 100 µM | [50] 36.7 µM | [51] 23.8 µM | [9] 63.8 µM | [52] 52.5 µM | [10] 67.3 µM | [11] 31.2 µM | [12] 26.6 µM | [40] 59 µM | [41] 40.7 µM | [13] 18.5 µM | [14] 40.8 µM | [53] 30.9 µM | [43] 54.1 µM | [15] 26.9 µM | [16] 39.6 µM | [54] 78.3 µM | [17] 22.6 µM | [18] 48.9 µM | [19] 55.5 µM | [20] 28.1 µM | [21] 55.3 µM | [55] 84.1 µM | [22] 16 µM | [23] 30.2 µM | [44] 37.4 µM | [46] 33.8 µM | [47] 15.6 µM | [26] > 100 µM | [48] 15.2 µM | [49] 44.8 µM | [28] 75.3 µM | [29] 13.7 µM | [31] 47.6 µM | [32] 57.5 µM | [33] 27.7 µM | [34] 22.7 µM | [35] > 100 µM | [37] 28.8 µM
